US9518081B2, “Peptide libraries” (BICYCLE THERAPEUTICS LIMITED, priority 2009, dated 2016)
*1 amine or outer side, *2 acyl side, *3 side chain or, on linkers, in order; H or OH if unused. Where a SMILES comes first, the peptide text is derived from it. Bridges are numbered along the chain shown (N, C = ends). TBMB = c1c(C[*:1])cc(C[*:3])cc1C[*:2]

System: chymotrypsin
Assay: Phage ELISA after DTT reduction and chymotrypsin treatment (resistance to proteolysis)
Assay type: in vitro ADME
Details: 5 mM DTT 20 min, chymotrypsin 50 ug/ml 2 min
Method: 0.6 μg/mL of biotinylated MDM2 peptide (res 2-125) was immobilized on a streptavidin-coated plate (Roche). Plate was blocked with PBSM (but 4% in milk powder) and linear or TBMB-conjugated phage (10^7 TU/well in PBSM in the presence or absence of 5 mM DTT) was incubated on the plate for 50 min at room temperature. Similarly, phage was first reduced in 5 mM DTT for 20 min, treated with chymotrypsin (50 ug/ml in PBS) for 2 min, mixed with PBSM (final concentration) and incubated on the plate for 50 min at room temperature. Phage was detected using an anti-M13-HRP monoclonal antibody (1:5000, Amersham).
Note that 5 mM DTT can reduce the disulphide bonds of chymotrypsin leading to its inactivation as a protease. […] In other experiments we have used up to 0.2 mM-5 mM TCEP in the presence of chymotrypsin (0.1 mg/ml-1 mg/ml) for 2 minutes at room temperature in PBS. These conditions also allowed us to distinguish between the linear and cyclic peptides on phage.

Row | SMILES | resistance of MDM2 binding to proteolysis
1 | CC(C)C[C@@H]1NC(=O)[C@H](CCC(=O)O)NC(=O)[C@@H](NC(=O)[C@@H](N)CO)CSCc2cc3cc(c2)CSC[C@H](NC(=O)[C@H](CCCCN)NC(=O)[C@@H]2CCCN2C(=O)[C@H](CC(N)=O)NC(=O)[C@H](Cc2c[nH]c4ccccc24)NC1=O)C(=O)N[C@@H](CCCNC(=N)N)C(=O)N[C@@H](CC(C)C)C(=O)N[C@@H](CO)C(=O)N1CCC[C@H]1C(=O)N[C@@H](Cc1ccccc1)C(=O)N[C@@H](CCC(=O)O)C(=O)N[C@H](C(=O)N[C@@H](CCCCN)C(=O)NCC(=O)O)CSC3 [PEP10] (H-SCELWNPKCRLSPFECKG-OH; linker 2-9-16 via TBMB (inferred)) | resistant to proteolysis
2 | CC(C)[C@@H]1NC(=O)[C@@H](NC(=O)[C@@H](N)CO)CSCc2cc3cc(c2)CSC[C@H](NC(=O)[C@H]([C@@H](C)O)NC(=O)[C@H](Cc2c[nH]c4ccccc24)NC(=O)CNC(=O)[C@H](Cc2ccccc2)NC(=O)[C@H](CCCNC(=N)N)NC1=O)C(=O)N[C@@H](CC(=O)O)C(=O)N[C@@H](CC(N)=O)C(=O)N[C@@H](CO)C(=O)N[C@@H](Cc1c[nH]c2ccccc12)C(=O)N[C@@H](Cc1c[nH]cn1)C(=O)NCC(=O)N[C@H](C(=O)N[C@@H](CCCCN)C(=O)NCC(=O)O)CSC3 [PEP48] (H-SCVRFGWTCDNSWHGCKG-OH; linker 2-9-16 via TBMB (inferred)) | resistant to proteolysis
